# According to US20240059671A1, “TYROSINE KINASE 2 (TYK2) DEGRADATION COMPOUNDS AND METHODS OF USE” (CULLGEN (SHANGHAI), INC., priority 2020, published 2024):
# Biological target: TYK2 (Homo sapiens, UniProt P29597)
# Test: TYK2 protein degradation in MOLT-4 cells by immunoblotting
# Type: cell-based
# Parameters: endogenous in cells; host or cells: MOLT-4
# Settings: MOLT-4 cells, 24 hours
# Procedure: MOLT-4 cells were treated with compounds at 0.5 and 5 μM concentrations for 24 hours.
# MOLT-4 cells were treated with CPD-038, CPD-039, and CPD-040 at 0.04, 0.2, 1, and 5 μM concentrations for 24 hours.
# MOLT-4 or NOMO-1 cells were cultured at 37° C. with 5% CO2 in RPMI 1640 Medium supplemented with 10% fetal bovine serum. Cells were authenticated using the short tandem repeat (STR) assays. Mycoplasma test results were negative.
# Cultured cells were washed with cold PBS once and lysed in cold RIPA buffer supplemented with protease inhibitors and phosphatase inhibitors (Beyotime Biotechnology). The solutions were then incubated at 4° C. for 30 minutes with gentle agitation to fully lyse cells. Cell lysates were centrifuged at 13,000 rpm for 10 minutes at 4° C. and pellets were discarded. Total protein concentrations in the lysates were determined by BCA assays (Beyotime Biotechnology). Cell lysates were mixed with Laemmli loading buffer to 1× and heated at 99° C. for 5 min. Proteins were resolved on SDS-PAGE and visualized by chemiluminescence. Images were taken by a ChemiDoc MP Imaging system (Bio-Rad). Protein bands were quantitated using the accompanied software provided by Bio-Rad.
# The percentage of TYK2 protein degradation of each compound at 0.5 and 5 μM determined in MOLT-4 cells as described in Methods.
# Chain of TYK2 (P29597 whole entry): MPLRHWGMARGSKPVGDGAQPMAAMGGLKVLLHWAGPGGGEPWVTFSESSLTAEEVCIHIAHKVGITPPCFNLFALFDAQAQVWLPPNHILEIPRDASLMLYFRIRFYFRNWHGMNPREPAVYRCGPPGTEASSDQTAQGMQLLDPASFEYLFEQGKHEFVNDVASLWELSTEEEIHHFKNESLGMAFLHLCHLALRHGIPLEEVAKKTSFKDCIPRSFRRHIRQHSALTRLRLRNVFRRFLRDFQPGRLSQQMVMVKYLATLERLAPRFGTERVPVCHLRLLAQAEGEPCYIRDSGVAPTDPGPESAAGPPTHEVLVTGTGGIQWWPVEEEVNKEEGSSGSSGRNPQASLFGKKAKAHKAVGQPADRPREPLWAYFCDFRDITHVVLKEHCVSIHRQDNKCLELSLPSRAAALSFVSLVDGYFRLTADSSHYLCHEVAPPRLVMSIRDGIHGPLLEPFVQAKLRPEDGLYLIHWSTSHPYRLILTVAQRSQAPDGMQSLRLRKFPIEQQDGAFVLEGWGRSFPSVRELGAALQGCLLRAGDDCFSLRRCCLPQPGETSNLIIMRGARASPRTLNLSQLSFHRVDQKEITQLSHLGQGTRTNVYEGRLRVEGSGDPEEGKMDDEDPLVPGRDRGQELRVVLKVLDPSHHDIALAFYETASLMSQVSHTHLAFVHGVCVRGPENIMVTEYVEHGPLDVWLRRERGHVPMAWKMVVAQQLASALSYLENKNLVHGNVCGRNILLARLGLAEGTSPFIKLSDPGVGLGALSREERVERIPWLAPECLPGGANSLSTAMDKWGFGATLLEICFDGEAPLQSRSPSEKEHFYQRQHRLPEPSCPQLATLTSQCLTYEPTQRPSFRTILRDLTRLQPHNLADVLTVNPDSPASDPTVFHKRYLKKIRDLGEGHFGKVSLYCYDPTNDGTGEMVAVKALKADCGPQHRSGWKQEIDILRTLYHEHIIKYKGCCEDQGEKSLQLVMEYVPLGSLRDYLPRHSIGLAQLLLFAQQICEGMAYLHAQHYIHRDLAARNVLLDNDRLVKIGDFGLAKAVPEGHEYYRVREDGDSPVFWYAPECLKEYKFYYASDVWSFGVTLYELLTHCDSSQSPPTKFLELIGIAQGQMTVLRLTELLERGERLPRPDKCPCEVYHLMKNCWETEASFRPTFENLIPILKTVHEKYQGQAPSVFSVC
Structure (SMILES),TYK2 Degradation (0.5 μM) [%],TYK2 Degradation (5 μM) [%],"TYK2 Degradation (MOLT-4, 0.5 μM)","TYK2 Degradation (MOLT-4, 5 μM)"
"CNC(=O)c1nnc(NC(=O)C2CC2)cc1Nc1cccc(-c2ncn(CCNC(=O)CCOCCOCCOCCOCCC(=O)N[C@H](C(=O)N3C[C@H](O)C[C@H]3C(=O)NCc3ccc(-c4scnc4C)cc3)C(C)(C)C)n2)c1OC [CPD-072, N^1-(2-(3-(3-((6-(Cyclopropanecarboxamido)-3-(methylcarbamoyl)pyridazin-4-yl)amino)-2-methoxyphenyl)-1H-1,2,4-triazol-1-yl)ethyl)-N^16-((S)-1-((2S,4R)-4-hydroxy-2-((4-(4-methylthiazol-5-yl)benzyl)carbamoyl)pyrrolidin-1-yl)-3,3-dimethyl-1-oxobutan-2-yl)-4,7,10,13-tetraoxahexadecanediamide]",≤20,≤20,–,–
"CNC(=O)c1nnc(NC(=O)CNC(=O)CCCC(=O)N[C@H](C(=O)N2C[C@H](O)C[C@H]2C(=O)NCc2ccc(-c3scnc3C)cc2)C(C)(C)C)cc1Nc1cccc(-c2ncn(C)n2)c1OC [CPD-035, N^1—((S)-1-((2S,4R)-4-Hydroxy-2-((4-(4-methylthiazol-5-yl)benzyl)carbamoyl)pyrrolidin-1-yl)-3,3-dimethyl-1-oxobutan-2-yl)-N^5-(2-((5-((2-methoxy-3-(1-methyl-1H-1,2,4-triazol-3-yl)phenyl)amino)-6-(methylcarbamoyl)pyridazin-3-yl)amino)-2-oxoethyl)glutaramide]",≤20,≤20,–,–
"CNC(=O)c1nnc(NC(=O)C2CC2)cc1Nc1cccc(-c2ncn(CCNC(=O)CCCCCCNc3cccc4c3C(=O)N(C3CCC(=O)NC3=O)C4=O)n2)c1OC (stereo not shown) [CPD-006, 6-(Cyclopropanecarboxamido)-4-((3-(1-(2-(7-((2-(2,6-dioxopiperidin-3-yl)-1,3-dioxoisoindolin-4-yl)amino)heptanamido)ethyl)-1H-1,2,4-triazol-3-yl)-2-methoxyphenyl)amino)-N-methylpyridazine-3-carboxamide]",≤20,–,–,–
"CNC(=O)c1nnc(NC(=O)CNC(=O)COCCOCCOCCOCCOCC(=O)N[C@H](C(=O)N2C[C@H](O)C[C@H]2C(=O)NCc2ccc(-c3scnc3C)cc2)C(C)(C)C)cc1Nc1cccc(-c2ncn(C)n2)c1OC [CPD-032, N^1—((S)-1-((2S,4R)-4-Hydroxy-2-((4-(4-methylthiazol-5-yl)benzyl)carbamoyl)pyrrolidin-1-yl)-3,3-dimethyl-1-oxobutan-2-yl)-N^17-(2-((5-((2-methoxy-3-(1-methyl-1H-1,2,4-triazol-3-yl)phenyl)amino)-6-(methylcarbamoyl)pyridazin-3-yl)amino)-2-oxoethyl)-3,6,9,12,15-pentaoxaheptadecanediamide]",≤20,≤20,–,–
"CNC(=O)c1nnc(NC(=O)C2CC2)cc1Nc1cccc(-c2ncn(CCNC(=O)CCOCCOCCNc3cccc4c3C(=O)N(C3CCC(=O)NC3=O)C4=O)n2)c1OC (stereo not shown) [CPD-009, 6-(Cyclopropanecarboxamido)-4-((3-(1-(2-(3-(2-(2-((2-(2,6-dioxopiperidin-3-yl)-1,3-dioxoisoindolin-4-yl)amino)ethoxy)ethoxy)propanamido)ethyl)-1H-1,2,4-triazol-3-yl)-2-methoxyphenyl)amino)-N-methylpyridazine-3-carboxamide]",≤20,–,–,–
"CNC(=O)c1nnc(NC(=O)CNC(=O)CCCCCCCOc2cc(-c3scnc3C)ccc2CNC(=O)[C@@H]2C[C@@H](O)CN2C(=O)[C@@H](NC(=O)C2(F)CC2)C(C)(C)C)cc1Nc1cccc(-c2ncn(C)n2)c1OC [CPD-107, 6-(2-(8-(2-(((2S,4R)-1-((S)-2-(1-Fluorocyclopropane-1-carboxamido)-3,3-dimethylbutanoyl)-4-hydroxypyrrolidine-2-carboxamido)methyl)-5-(4-methylthiazol-5-yl)phenoxy)octanamido)acetamido)-4-((2-methoxy-3-(1-methyl-1H-1,2,4-triazol-3-yl)phenyl)amino)-N-methylpyridazine-3-carboxamide]",–,–,C (C: ≤20% TYK2 degradation),C (C: ≤20% TYK2 degradation)
"CNC(=O)c1nnc(NC(=O)C2CC2)cc1Nc1cccc(-c2ncn(CCNC(=O)CCCCNc3cccc4c3C(=O)N(C3CCC(=O)NC3=O)C4=O)n2)c1OC (stereo not shown) [CPD-004, 6-(Cyclopropanecarboxamido)-4-((3-(1-(2-(5-((2-(2,6-dioxopiperidin-3-yl)-1,3-dioxoisoindolin-4-yl)amino)pentanamido)ethyl)-1H-1,2,4-triazol-3-yl)-2-methoxyphenyl)amino)-N-methylpyridazine-3-carboxamide]",≤20,–,–,–
"CNC(=O)c1nnc(NC(=O)C2CC2)cc1Nc1cccc(-c2ncn(CCNC(=O)CCOCCOCCOCCOCCOCCNc3cccc4c3C(=O)N(C3CCC(=O)NC3=O)C4=O)n2)c1OC (stereo not shown) [CPD-012, 6-(Cyclopropanecarboxamido)-4-((3-(1-(1-((2-(2,6-dioxopiperidin-3-yl)-1,3-dioxoisoindolin-4-yl)amino)-18-oxo-3,6,9,12,15-pentaoxa-19-azahenicosan-2l-yl)-1H-1,2,4-triazol-3-yl)-2-methoxyphenyl)amino)-N-methylpyridazine-3-carboxamide]",≤20,–,–,–
"CNC(=O)c1nnc(NC(=O)C2CC2)cc1Nc1cccc(-c2ncn(CCNC(=O)CCCNc3cccc4c3C(=O)N(C3CCC(=O)NC3=O)C4=O)n2)c1OC (stereo not shown) [CPD-003, 6-(Cyclopropanecarboxamido)-4-((3-(1-(2-(4-((2-(2,6-dioxopiperidin-3-yl)-1,3-dioxoisoindolin-4-yl)amino)butanamido)ethyl)-1H-1,2,4-triazol-3-yl)-2-methoxyphenyl)amino)-N-methylpyridazine-3-carboxamide]",≤20,–,–,–
"CNC(=O)c1nnc(Nc2ccc(N3CCN(C(=O)CCCCC(=O)N[C@H](C(=O)N4C[C@H](O)C[C@H]4C(=O)NCc4ccc(-c5scnc5C)cc4)C(C)(C)C)CC3)cn2)cc1Nc1cccc(-c2ncn(C)n2)c1OC [CPD-098, 6-((5-(4-(6-(((S)-1-((2S,4R)-4-Hydroxy-2-((4-(4-methylthiazol-5-yl)benzyl)carbamoyl)pyrrolidin-1-yl)-3,3-dimethyl-1-oxobutan-2-yl)amino)-6-oxohexanoyl)piperazin-1-yl)pyridin-2-yl)amino)-4-((2-methoxy-3-(1-methyl-1H-1,2,4-triazol-3-yl)phenyl)amino)-N-methylpyridazine-3-carboxamide]",–,–,C (C: ≤20% TYK2 degradation),C (C: ≤20% TYK2 degradation)
"CNC(=O)c1nnc(NC(=O)CNC(=O)CCCNc2cccc3c2C(=O)N(C2CCC(=O)NC2=O)C3=O)cc1Nc1cccc(-c2ncn(C)n2)c1OC (stereo not shown) [CPD-044, 6-(2-(4-((2-(2,6-Dioxopiperidin-3-yl)-1,3-dioxoisoindolin-4-yl)amino)butanamido)acetamido)-4-((2-methoxy-3-(1-methyl-1H-1,2,4-triazol-3-yl)phenyl)amino)-N-methylpyridazine-3-carboxamide]",≤20,≤20,–,–
"CNC(=O)c1nnc(NC(=O)CNC(=O)CCOCCOCCOCCC(=O)N[C@H](C(=O)N2C[C@H](O)C[C@H]2C(=O)NCc2ccc(-c3scnc3C)cc2)C(C)(C)C)cc1Nc1cccc(-c2ncn(C)n2)c1OC [CPD-030, 6-((S)-18-((2S,4R)-4-Hydroxy-2-((4-(4-methylthiazol-5-yl)benzyl)carbamoyl)pyrrolidine-1-carbonyl)-19,19-dimethyl-4,16-dioxo-7,10,13-trioxa-3,17-diazaicosanamido)-4-((2-methoxy-3-(1-methyl-1H-1,2,4-triazol-3-yl)phenyl)amino)-N-methylpyridazine-3-carboxamide]",≤20,≤20,–,–
"CNC(=O)c1nnc(NC(=O)C2CC2)cc1Nc1cccc(-c2ncn(CCNC(=O)COCCOCCOCCOCCOCC(=O)N[C@H](C(=O)N3C[C@H](O)C[C@H]3C(=O)NCc3ccc(-c4scnc4C)cc3)C(C)(C)C)n2)c1OC [CPD-073, N^1-(2-(3-(3-((6-(Cyclopropanecarboxamido)-3-(methylcarbamoyl)pyridazin-4-yl)amino)-2-methoxyphenyl)-1H-1,2,4-triazol-1-yl)ethyl)-N^17-((S)-1-((2S,4R)-4-hydroxy-2-((4-(4-methylthiazol-5-yl)benzyl)carbamoyl)pyrrolidin-1-yl)-3,3-dimethyl-1-oxobutan-2-yl)-3,6,9,12,15-pentaoxaheptadecanediamide]",≤20,≤20,–,–
"CNC(=O)c1nnc(NC(=O)CNC(=O)CNC(=O)C[C@H](NC(=O)[C@@H]2C[C@@H](O)CN2C(=O)[C@@H](NC(=O)C2(F)CC2)C(C)(C)C)c2ccc(-c3scnc3C)cc2)cc1Nc1cccc(-c2ncn(C)n2)c1OC [CPD-086, 6-(2-(2-((S)-3-((2S,4R)-1-((S)-2-(1-Fluorocyclopropane-1-carboxamido)-3,3-dimethylbutanoyl)-4-hydroxypyrrolidine-2-carboxamido)-3-(4-(4-methylthiazol-5-yl)phenyl)propanamido)acetamido)acetamido)-4-((2-methoxy-3-(1-methyl-1H-1,2,4-triazol-3-yl)phenyl)amino)-N-methylpyridazine-3-carboxamide]",–,–,C (C: ≤20% TYK2 degradation),–
